Measurements reported in ChEMBL document CHEMBL5604062, “ASAP - ZIKV NS2B-NS3 protease fluorescence dose response” (2024).

Target: Nonstructural protein 3 (Zika virus, UniProt A0A024AXB9)
Assay: Functional biochemical assay to identify treatments for viral infectious disease that targets Zika NS2B-NS3 protease. Utilizing a direct enzyme activity measurement method, reading the fluorescence intensity is used to characterize the relative potency of inhibitors as IC50.
Parameters: species or system PRVABC59

Chain of Nonstructural protein 3 (A0A024AXB9 whole entry): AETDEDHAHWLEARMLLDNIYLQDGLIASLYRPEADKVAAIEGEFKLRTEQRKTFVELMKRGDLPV

Row | Compound | IC50
1 | CC(C)c1cc(-c2ccc3[nH]c(C(=O)O)cc3c2)cc(S(N)(=O)=O)c1 | > 99.5 µM
2 | O=C(Nc1ccc2c(c1)CNCC2)c1cc(Cl)cc2[nH]ncc12 | 0.504 µM
3 | O=C(O)c1cc2cc(-c3cccc([C@H]4CNCCO4)c3)ccc2[nH]1 | > 99.5 µM
4 | O=C1CCc2c(cc(Cl)cc2-c2ccc3[nH]c(C(=O)O)cc3c2)N1 | > 99.5 µM
5 | O=C(Nc1ccc2c(c1)CNC2)c1cc(Cl)cc2c1CCC2 | 0.159 µM
6 | O=C(O)c1cc2cccc(Cc3c[nH]c4ccc(Cl)cc34)c2[nH]1 | > 99.5 µM
7 | O=C(Nc1ccc2c(c1)CNC2)c1n[nH]c(=O)c2ccccc12 | 22.4 µM
8 | Clc1ccc2[nH]cc(Cc3ccc4c(c3)CNC4)c2c1 | > 99.5 µM
9 | O=C(Nc1ccc2c(c1)CNC2)c1ccccn1 | 57.3 µM
10 | C=CC[C@H](Nc1ccc2c(c1)CNC2)c1cc(Cl)cc2[nH]ncc12 | 7.93 µM
11 | O=C(Nc1ccc2c(c1)CNC2)c1cccnc1 | 16.6 µM
12 | O=C(O)c1cc2cc(-c3cccc([C@H]4COCCN4)c3)ccc2[nH]1 | > 99.5 µM
13 | CC(C)c1cc(Br)cc(C(=O)Nc2ccc3c(c2)CNC3)c1 | 0.393 µM
14 | N[C@H]1CC[C@H](c2ccc(NC(=O)c3cc(Cl)cc4[nH]ncc34)cc2)C1 | 8.51 µM
15 | O=C(Nc1ccc2c(c1)CNC2)c1cc(Br)cc2c1OCO2 | 0.848 µM
16 | O=C(O)COc1cc2c(cc1Cc1c[nH]c3ccc(Cl)cc13)OCO2 | > 99.5 µM
17 | Cc1[nH]c2ccc(Cl)cc2c1Cc1ccc(-c2nnn[nH]2)cc1 | > 99.5 µM
18 | O=C(Nc1ccc2c(c1)OCO2)c1cc(Cl)cc2[nH]ncc12 | > 99.5 µM
19 | O=C(O)c1cc(Cc2c[nH]c3ccc(Cl)cc23)cc(C2CC2)n1 | > 99.5 µM
20 | O=C(Nc1ccc(C2CNC2)cc1)c1cc(Cl)cc2[nH]ncc12 | 1.22 µM
21 | Cn1ncc2c(C(=O)Nc3ccc4c(c3)CNC4)cc(Br)cc21 | 0.274 µM
22 | O=C(O)[C@H]1C[C@H](n2ccc(Cc3c[nH]c4ccc(Cl)cc34)n2)C1 | > 99.5 µM
23 | c1ccc2c(Cc3ccc(-c4nnn[nH]4)cc3)c[nH]c2c1 | > 99.5 µM
24 | Nc1ccc(NC(=O)c2cc(Cl)cc3[nH]ncc23)cn1 | > 99.5 µM
25 | N#Cc1cc(-c2ccc3[nH]c(C(=O)O)cc3c2)cc(N2CCCC2)c1 | > 99.5 µM
26 | CNc1c(-c2cc(Cl)cc(C3CC3)c2)nc2cc(C(=O)O)ccn12 | > 99.5 µM
27 | CNc1c(-c2cc(Cl)cc(C3CC3)c2)nc2cccc(C(=O)O)n12 | > 99.5 µM
28 | O=C(Nc1ccc(C2CCNCC2)cc1)c1cc(Cl)cc2[nH]ncc12 | 9.21 µM
29 | O=C(O)c1ccc(Cc2c[nH]c3ccc(Cl)cc23)cc1 | > 99.5 µM

Continued, values first:

Row | IC50 | Compound
30 | 11.5 µM | CC(C)(C)OC(=O)NCc1cc(NC(=O)c2cc(Cl)cc(NC(=O)OCc3ccccc3)c2)cc(-c2nn[nH]n2)c1
31 | 19.9 µM | NCCCCc1ccc(NC(=O)c2cc(Cl)cc3[nH]ncc23)cc1
32 | > 99.5 µM | O=C(O)Cc1c[nH]c2cc(-c3cc(Cl)cc(NC(=O)OCc4ccccc4)c3)ccc12
33 | 0.356 µM | CC(C)(C)c1cc(Br)cc(C(=O)Nc2ccc3c(c2)CNC3)c1
34 | > 99.5 µM | Cc1oc2nc(-c3cc(Cl)cc(NC(=O)OCc4ccccc4)c3)ccc2c1C(=O)O
35 | 0.832 µM | CN1Cc2ccc(NC(=O)c3cc(Cl)cc4[nH]ncc34)cc2C1
36 | 0.736 µM | Cc1cc(CN)cc(NC(=O)c2cc(Cl)cc3[nH]ncc23)c1
37 | 0.206 µM | O=C(Nc1ccc2c(c1)CNC2)c1cc(Br)cc2ccccc12
38 | 3.78 µM | NCCc1ccc(NC(=O)c2cc(Cl)cc3[nH]ncc23)cc1
39 | > 99.5 µM | O=C(O)c1nc(Cc2c[nH]c3ccc(Cl)cc23)c2ccccn12
40 | > 99.5 µM | O=C1Cc2cc(NC(=O)c3cc(Cl)cc4[nH]ncc34)ccc2N1
41 | > 99.5 µM | CNC(=O)[C@H](Nc1cc(CNC(=O)OC(C)(C)C)cc(C(=O)O)c1)c1cc(Cl)cc(C2CC2)c1
42 | 33.8 µM | C=CC[C@H](Nc1cccc(C2(C(=O)O)CCC2)c1)c1cc(Cl)cc(NC(=O)OCc2ccccc2)c1
43 | > 99.5 µM | O=C(O)c1nn(-c2ccccc2)cc1Cc1c[nH]c2ccc(Cl)cc12
44 | > 99.5 µM | N#Cc1cccc(C[C@H](O)c2cc(Cl)cc(NC(=O)OCc3ccccc3)c2)c1
